“Also recorded” adds a separate entry of the source.
Tested on: Acinetobacter baumannii colistin resistance 357 (R357 strains)
Type: cell-based

Row | Compound | cell growth inhibitory effect (respiration rate), PA108 alone (PA108 5 μM alone) | bacterial growth inhibitory effect (relative respiration rate) in combination with PMB (compound 5 μM + PMB 16 μg/mL, 37° C., 24 hours) | cell growth inhibitory effect (respiration rate), PMB alone (PMB 16 μg/mL alone)
1 | Cc1cc([N+](=O)[O-])cc(-c2ccc(Cl)cc2)c1O [PA108] | no self cell growth inhibitory effect | an activity to improve bacterial susceptibility to a polymyxin-based antibiotic; also recorded: cellular respiration was effectively inhibited | –
2 | polymyxin B [PMB, reference compound] | – | – | no cell growth inhibitory effect

Source: patent publication US12599575B2, “Antimicrobial adjuvant containing biphenyl derivative compound as active ingredient, and uses thereof” (KOREA RESEARCH INSTITUTE OF BIOSCIENCE AND BIOTECHNOLOGY, priority 2021, dated 2026)
